Data on one compound can be found in patent US11661399B2, “Methods and compositions for preventing degradation of dimethyl trisulfide” (priority 2018, dated 2023).

The structures appear in SMILES notation.

Data set [1] in a line: Accelerated stability storage: DMTS recovery over time in solution. In kind it is physicochemical. The conditions noted are these: for DMTS degraded: 14 days at 54° C. How it is done: (§1) EPA accelerated stability guidelines call for storage of compositions at 54° C. for two weeks. This is considered to be the equivalent to storing compositions for one year at room temperature. These conditions were applied to the following studies to ensure that DMTS can be formulated in compliance with EPA guidelines.
120 ppm DMTS only is compared to 120 ppm DMTS with 420 ppm MDEA. Using the accelerated conditions described above, DMTS in water was still observed to be degrading over time.
Various conditions were modified to improve the overall stability of DMTS in solution. First, the pH was lowered by buffering the solution. It was predicted that a lower pH might prevent the catalyzation of DMTS breakdown. The solution was buffered to a pH of 6 and compared to a control. 32 ppm DMTS was stored in glass at 40° C. for 7 days, then stored at 54° C. for an additional 15 days.
DMDS was added to the DMTS in this example. It was hypothesized that if the breakdown pathway of DMTS to DMDS exists in equilibrium, additional DMDS would stabilize the breakdown pathway. DMDS was added to formulas containing DMTS only and DMTS with MDEA.
It was hypothesized that propylene glycol (PG) could have a similar effect. Samples were prepared with 8 ppm and 4 ppm DMTS in water as controls. Experimental samples included 8 ppm DMTS with 1% PG or 10% PG. A sample was also prepared in an HDPE container that was not fluorinated.
This example examined the effects of fluorination of HDPE containers on the stability of DMTS. Stability of DMTS was recorded for storage at 54° C. over the course of 14 days. Glass containers were used as a control. HDPE containers were tested having no fluorination (F0), Level 3 fluorination (F3), and Level 5 fluorination (F5). Samples of DMTS were prepared to a dilution of 8 ppm DMTS in water with 10% PG.
Given the improvements seen with 10% PG used as solvent, higher concentrations of PG were tested. 0.28% DMTS in 100% PG was tested for stability over two weeks at 54° C. Storage in glass containers was compared to HDPE containers with Level 3 fluorination.
Other solvents were tested without dilution with water. Samples of 0.03% DMTS were prepared in 100% solvent. The solvents tested were ethanol in a glass container, PG in a glass container, PG in a non-fluorinated HDPE container, and glycerol in a glass container.
In this example, 0.03 wt-% (300 ppm) DMTS was dissolved into solvent consisting of 100% ethanol (EtOH) or 100% propylene glycol (PG). This study is very similar to Example 7. Recovery of DMTS was recorded over the course of 14 days. The DMTS solutions were stored in the accelerated conditions of 54° C. Less than 10% DMTS was degraded over the course of 14 days for both EtOH and PG.
In this example, a lower concentration of DMTS was used to produce a use composition. 32 ppm DMTS was dissolved in either a 100% water solution or a combination of 10% PG and 90% water. The same accelerated conditions were used for 14 days. Over 70% of DMTS was recovered with water as the only solvent. However, using a 10% PG solution in water improved DMTS stability, providing greater than 80% recovery.
Even lower concentrations of DMTS were examined to determine if further dilution of the concentrate affects stability of DMTS. Solutions including 8 ppm DMTS were prepared. DMTS was dissolved in water, a solution of 1 wt-% PG in water, and a solution 10 wt-% PG in water. […] The reduced quantity of DMTS did have a slight negative effect on stability.
Finally, solutions including 1 ppm DMTS were examined to determine if use compositions including small amounts of DMTS can remain stable over the course of the two week testing period at 54° C. […] Hard water had the greatest negative effect on DMTS stability.

The nature of data set [2]: DMTS degradation over 14 days at 54° C. (gas chromatograph, Day 0 vs Day 14). The data set is classed as physicochemical. The settings on record: water + MDEA, pH lowered to 2, two weeks at 54° C. On the procedure:
as §1
In this example, various concentrations of DMTS in water, ethanol (EtOH), and propylene glycol (PG), with and without MDEA, were prepared and tested for degradation. The pH was adjusted to 2, 7, or 12+/−0.5 with sodium hydroxide or hydrochloric acid. The DMTS concentration was measured by gas chromatograph on Day 0 and Day 14 and the percent degradation calculated from those values. The formulas were capped and stored at 54° C. for two weeks.

`CSSSC` [DMTS, dimethyl trisulfide]: in data set [1] (1 ppm DMTS in hard water, day 14, 54° C.), the “DMTS remaining in solution” value is “no DMTS remained”. For the same compound, the “DMTS stability (in words)” value in data set [1] (8 ppm DMTS in water with 10% PG, HDPE Level 5 fluorination (F5), 54° C., 14 days) was “best results which were similar to the glass containers”; in data set [1] (8 ppm DMTS with 1% PG or 10% PG vs water controls), “Some improvement”; in data set [1] (32 ppm DMTS, N2 blanket and soft water samples, glass, 40° C. 7 days then 54° C. 15 days), “least stable conditions”. The “DMTS degradation (in words)” value in data set [1] (8 ppm DMTS in water with 10% PG, non-fluorinated HDPE (F0), 54° C., 14 days) was “fastest rates of DMTS degradation”; in data set [1] (32 ppm DMTS in solution with ethanol, glass, 40° C. 7 days then 54° C. 15 days), “least degradation”; in data set [1] (sample in non-fluorinated HDPE container, 54° C.), “significantly faster degradation”. Also, in data set [1] (32 ppm DMTS in 100% water, 14 days accelerated conditions), the DMTS recovered entry is reported as “Over 70%”. Besides, the “DMTS breakdown (in words)” value in data set [1] (32 ppm DMTS, pH 6 buffer, glass, 40° C. 7 days then 54° C. 15 days) is listed as “faster breakdown than the control”; in data set [1] (DMDS added to DMTS only and DMTS with MDEA formulas) it was “did not slow down the breakdown of DMTS”. In data set [1] (120 ppm DMTS only in water vs 120 ppm DMTS with 420 ppm MDEA, accelerated conditions), the “DMTS degradation over time (in words)” value is reported as “degradation was slowed significantly”. In addition, the DMTS degraded result in data set [1] (300 ppm DMTS in 100% EtOH) is listed as “Less than 10%”; in data set [1] (300 ppm DMTS in 100% PG), “Less than 10%”; in data set [2], 20%.
